Assay results as given in publication PMC6350621, “Small-molecules that covalently react with a human prolyl hydroxylase – towards activity modulation and substrate capture” (Chemical Communications (Cambridge, England), 2018).

Assays:
PHD2_181–418 = target: T1, PHD2_181–418 (Homo sapiens, UniProt Q9GZT9); test: Non-denaturing ESI-MS crosslinking, 418 truncate; format: binding; conditions: equimolar FeSO4 and compound, 3 h, 37 °C, 200 V
T1 construct: Both the 418 (PHD2_181–418); His6 (N, cleaved yes); made in house; host or cells: bacterial culture (2x TY, kanamycin, IPTG)
T1 sequence (Q9GZT9 181-418): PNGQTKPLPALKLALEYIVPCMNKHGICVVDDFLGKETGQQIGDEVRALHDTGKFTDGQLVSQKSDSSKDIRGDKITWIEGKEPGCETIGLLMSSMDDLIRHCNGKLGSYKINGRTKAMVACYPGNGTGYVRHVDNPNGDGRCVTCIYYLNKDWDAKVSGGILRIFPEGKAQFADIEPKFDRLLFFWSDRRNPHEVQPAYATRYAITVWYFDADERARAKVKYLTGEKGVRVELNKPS
Procedure: (§1) The site of crosslinking of 3 was investigated using protein variants. First, 3 was incubated with C-terminal truncated PHD2 (PHD2_181–402) and a loop deletion variant (deletion of residues 238–250, PHD2Δ). […] Thus, 3 was incubated with PHD2 constructs truncated at residues 402, 410, 414 and 418. […] Crosslinking experiments with PHD2 R411M implied that R411 is not directly involved in crosslinking (Fig. S11, ESI ^†).
Fig. S8 Temperature dependence of the rate of crosslinking of 3 with PHD2. PHD2 (20 µM) was incubated with equimolar Fe(II) and 3 in buffer (50 mM Tris, 150 mM NaCl, pH 7.5) at 4, 20 and 37 °C. The ratio of crosslinking after 1, 2, and 4 h was determined by ESI-MS under denaturing conditions (n = 2), error bars represent 1 standard deviation.
Fig. S9 Ratio of crosslinked PHD2.3 before evaluation of catalytic activity. Labelled peaks correspond to: (A): PHD2, […]
Fig. S10 Non-denaturing ESI-MS analysis of (a) PHD2 and its C-terminal truncations (b) PHD2181-418; (c) PHD2181-414;
(d) PHD2181-410; (e) PHD2181-402 in the presence of equimolar amounts of FeSO4 and 3 after 3 hours incubation at 37 °C in ammonium acetate (15 mM, pH 7.5) at a sample cone voltage of 200V. Peaks present: (A): PHD2.Fe; (B): PHD2181-

[1] = target: T2, PHD2Δ (deletion of residues 238–250) (Homo sapiens, UniProt Q9GZT9, DEL238-250); test: Non-denaturing ESI-MS crosslinking, loop deletion variant; format: binding; conditions: equimolar Fe(II) and compound, 3 h, 37 °C, 200 V
T2 construct: PHD2_181–426 (hereafter PHD2); His6 (N, cleaved yes); made in house; host or cells: bacterial culture (2x TY, kanamycin, IPTG)
T2 sequence (Q9GZT9 with tags, fused parts or gaps DEL238-250): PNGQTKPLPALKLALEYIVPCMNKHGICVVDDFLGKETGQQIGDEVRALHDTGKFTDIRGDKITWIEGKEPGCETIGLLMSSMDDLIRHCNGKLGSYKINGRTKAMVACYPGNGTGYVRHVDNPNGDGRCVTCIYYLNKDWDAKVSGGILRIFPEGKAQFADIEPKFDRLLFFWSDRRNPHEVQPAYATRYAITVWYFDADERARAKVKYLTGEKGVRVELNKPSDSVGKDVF
Procedure: as §1
Fig. 3 (A) Non-denaturing ESI-MS data on the flexible loop truncated (top) and C-terminal tail tuncated (bottom) versions of PHD2 in the presence of equimolar Fe(II) and 3 (3 hour incubation, 37 °C. Cone voltage: 200 V). A = [PHD2Δ + Fe], B = [PHD2Δ + Fe + 3], C = [PHD2_181–402 + Fe], D = [PHD2_181–402 + Fe + 3]. (B) MS/MS spectrum of the trypsin derived peptide 403[…]411 crosslinked to 3 identified K408 as the site of crosslinking.

KDM4A = target: T3, KDM4A (Homo sapiens, UniProt O75164); test: Denaturing MS covalent adduct formation with KDM4A; format: binding; conditions: enzyme 20 μM, Fe(II) 30 μM, compound 30 μM, 37 °C, 4 h
T3 sequence (O75164 1-1064): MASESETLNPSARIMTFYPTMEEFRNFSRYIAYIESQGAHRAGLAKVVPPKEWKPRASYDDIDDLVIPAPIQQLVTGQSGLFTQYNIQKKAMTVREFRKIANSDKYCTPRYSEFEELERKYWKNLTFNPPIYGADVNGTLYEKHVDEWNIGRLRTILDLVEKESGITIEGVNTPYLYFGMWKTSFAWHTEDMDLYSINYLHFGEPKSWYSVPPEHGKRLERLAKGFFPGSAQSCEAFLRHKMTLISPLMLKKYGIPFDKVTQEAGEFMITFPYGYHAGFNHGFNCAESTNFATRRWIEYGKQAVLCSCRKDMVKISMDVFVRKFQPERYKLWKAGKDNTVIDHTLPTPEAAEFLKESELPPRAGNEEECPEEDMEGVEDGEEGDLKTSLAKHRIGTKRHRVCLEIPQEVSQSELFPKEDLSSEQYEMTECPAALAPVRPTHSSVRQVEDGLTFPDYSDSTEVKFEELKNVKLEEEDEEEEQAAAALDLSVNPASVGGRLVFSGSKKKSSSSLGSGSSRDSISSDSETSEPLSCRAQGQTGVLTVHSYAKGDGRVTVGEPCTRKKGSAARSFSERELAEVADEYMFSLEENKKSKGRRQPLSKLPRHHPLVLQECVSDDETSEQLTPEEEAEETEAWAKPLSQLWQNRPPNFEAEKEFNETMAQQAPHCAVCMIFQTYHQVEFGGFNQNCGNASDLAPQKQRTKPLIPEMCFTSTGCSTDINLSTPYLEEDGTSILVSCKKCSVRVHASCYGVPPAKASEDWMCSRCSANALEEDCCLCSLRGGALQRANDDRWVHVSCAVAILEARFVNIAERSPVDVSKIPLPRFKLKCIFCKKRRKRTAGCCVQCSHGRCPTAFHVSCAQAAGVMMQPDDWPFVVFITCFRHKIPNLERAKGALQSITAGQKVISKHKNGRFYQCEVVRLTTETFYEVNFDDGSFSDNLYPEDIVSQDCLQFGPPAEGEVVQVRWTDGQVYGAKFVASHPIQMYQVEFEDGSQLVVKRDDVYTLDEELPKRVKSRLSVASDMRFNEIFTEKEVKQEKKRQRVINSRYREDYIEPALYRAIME
Excerpt: Ligands that covalently modify proteins are used for activity-based profiling by functionalisation with an appropriate handle.[20] […] This method for incorporation of a photoreactive group near the active site of a protein to enable substrate capture is complementary to ‘photoreactive site directed mutagenesis’.[21],[22] Azide 7 was designed for use as a tag to allow ‘click’ conjugation with a handle (e.g. biotin) for activity-based profiling, or as a photoreactive aryl azide for substrate capture. […] There is scope for optimisaiton and broader application of the approach described here. […] Work toward the application of 7 and derivatives in protein profiling and substrate capture in cells is ongoing.
HeLa cells were treated with the […]

HIF-1α in HeLa cells = test: HIF-1α levels in HeLa cells by anti-HIF-1α immunoblotting; conditions: 50 or 250 µM, 6 h
PHD2 = target: T4, PHD2 (Homo sapiens, UniProt Q9GZT9); test: Peptide turnover assay (CODD hydroxylation) with MALDI-MS detection; format: biochemical; conditions: pre-incubation 0, 1, 2 and 4 h
T4 construct: PHD2_181–426 (hereafter PHD2); His6 (N, cleaved yes); made in house; host or cells: bacterial culture (2x TY, kanamycin, IPTG)
T4 sequence (Q9GZT9 181-426): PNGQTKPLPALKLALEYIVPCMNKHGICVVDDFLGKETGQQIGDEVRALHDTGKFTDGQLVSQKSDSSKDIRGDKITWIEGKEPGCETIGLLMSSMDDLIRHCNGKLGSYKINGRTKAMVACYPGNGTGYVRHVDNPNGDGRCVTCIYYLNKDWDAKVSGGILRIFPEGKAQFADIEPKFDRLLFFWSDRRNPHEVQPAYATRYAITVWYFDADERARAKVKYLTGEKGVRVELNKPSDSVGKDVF

For C=CC(=O)Nc1cccc(C(=O)NCC(=O)O)c1O [compound 3], the “covalent modification of 418 truncate” value (PHD2_181–418) was “covalently modified”, the “crosslinking with loop truncate” value [1] was “Crosslinking was maintained” and the “covalent reaction with KDM4A” value (KDM4A) was “did not accrue evidence”. The “HIF-1α upregulation in HeLa cells” value (HIF-1α in HeLa cells) was “no upregulation of HIF-1α” and the “activity of PHD2 pre-incubated with the compound” value (PHD2) was “remained as active as the non pre-incubated, uninhibited PHD2”.
